Assay results reported in US20250250269A1, “HETEROCYCLIC GLP-1 AGONISTS” (Gasherbrum Bio, Inc., priority 2022, published 2025).

molecular target: T1, GLP-1 Receptor (Homo sapiens, UniProt P43220); assay: GLP-1R agonist cAMP stimulation assay (HEK293/GLP1R/CRE-LUC cells, Cisbio cAMP dynamic 2 kit); assay type: cell-based; details: HEK293/CRE-Luc cells stably expressing the GLP-1 Receptor, 30 min at 37° C.
T1 construct: host or cells: HEK293/CRE-Luc (HEK293/GLP1R/CRE-LUC)
Method: Activation of GLP-1 receptor is known to stimulate cyclic AMP (cAMP) production in cells which indicates primary coupling to the Gas subunit of the G protein heterotrimeric complex.
To optimize functional activity directed toward Gas coupling, a HEK293/CRE-Luc cell line developed by HDB stably expressing the GLP-1 Receptor was used. 200× concentration of compound working solutions were prepared (Agilent Technologies Bravo) with ½ log serial dilution in 384-well Echo LDV plate (Labcyte, Cat #LP-0200). […] 200× concentration of compound working solutions were moved to 384-well white low volume plate (Greiner, Cat #784075) using Labcyte ECHO550. 1×10^5 cells/mL HEK293/GLP1R/CRE-LUC (HD Biosciences) cell suspensions prepared with assay buffer [DPBS containing 0.5 mM IBMX (Sigma, Cat #15879) and 0.1% BSA (GENVIEW, Cat #FA016-100g)], 10 μL cell suspensions were added to each well of previous generated assay plate which already contains […] compound at 200×concentration using ThermoFisher Multidrop Combi (1000 cells/well). Seal the plate and incubate at 37° C. with 5% CO2 for 30 min.
After incubation the cAMP assay signal was generated using cAMP dynamic 2 Kit (Cisbio). 5 μL cAMP-d2 working solution was added to each well, followed with 5 μL Anti-cAMP antibody-cryptate working solution added to each well using ThermoFisher Multidrop Combi. Incubate at room temperature for 1 hour protected from light. Read the fluorescence at 665 and 615 nm with Reader PerkinElmer EnVision.

T1 sequence (P43220 24-463, species assumed): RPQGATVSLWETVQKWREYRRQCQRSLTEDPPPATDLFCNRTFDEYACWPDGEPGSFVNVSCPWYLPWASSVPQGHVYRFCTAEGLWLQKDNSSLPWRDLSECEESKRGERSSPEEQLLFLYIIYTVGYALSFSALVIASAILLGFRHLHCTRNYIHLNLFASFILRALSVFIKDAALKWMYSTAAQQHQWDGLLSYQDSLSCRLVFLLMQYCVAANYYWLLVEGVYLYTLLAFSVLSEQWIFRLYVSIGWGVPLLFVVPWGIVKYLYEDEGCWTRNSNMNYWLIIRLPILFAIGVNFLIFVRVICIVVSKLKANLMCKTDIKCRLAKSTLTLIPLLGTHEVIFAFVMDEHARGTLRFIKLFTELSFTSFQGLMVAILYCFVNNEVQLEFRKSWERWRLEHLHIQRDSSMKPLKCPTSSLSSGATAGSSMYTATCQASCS

Structure (SMILES) | EC50
Fc1cc(Cl)cc(F)c1COc1cccc(C2CCN(Cc3nc4cc(-c5nnc(C(F)(F)F)[nH]5)ncc4n3C[C@@H]3CCO3)CC2)n1 [Compound 6, (S)-2-((4-(6-((4-chloro-2,6-difluorobenzyl)oxy)pyridin-2-yl)piperidin-1-yl)methyl)-3-(oxetan-2-ylmethyl)-6-(5-(trifluoromethyl)-4H-1,2,4-triazol-3-yl)-3H-imidazo[4,5-c]pyridine] | < 1 nM
FC(F)Oc1ccc(COc2cccc(C3CCN(Cc4nc5cc(-c6nnc(C(F)(F)F)[nH]6)ncc5n4C[C@@H]4CCO4)CC3)n2)cn1 [Compound 7, 2-{[6-(difluoromethoxy)pyridin-3-yl]methoxy}-6-{1-[(3-{[(2S)-oxetan-2-yl]methyl}-6-[5-(trifluoromethyl)-4H-1,2,4-triazol-3-yl]-3H-imidazo[4,5-c]pyridin-2-yl)methyl]piperidin-4-yl}pyridine] | < 1 nM
FC(F)Oc1cc(COc2cccc(C3CCN(Cc4nc5cc(-c6nnc(C(F)(F)F)[nH]6)ncc5n4C[C@@H]4CCO4)CC3)n2)ccn1 [Compound 8, (S)-2-((4-(6-((2-(difluoromethoxy)pyridin-4-yl)methoxy)pyridin-2-yl)piperidin-1-yl)methyl)-3-(oxetan-2-ylmethyl)-6-(5-(trifluoromethyl)-4H-1,2,4-triazol-3-yl)-3H-imidazo[4,5-c]pyridine] | < 1 nM
FC(F)Oc1cccc(COc2cccc(C3CCN(Cc4nc5cc(-c6nnc(C(F)(F)F)[nH]6)ncc5n4C[C@@H]4CCO4)CC3)n2)n1 [Compound 9, (S)-2-((4-(6-((6-(difluoromethoxy)pyridin-2-yl)methoxy)pyridin-2-yl)piperidin-1-yl)methyl)-3-(oxetan-2-ylmethyl)-6-(5-(trifluoromethyl)-4H-1,2,4-triazol-3-yl)-3H-imidazo[4,5-c]pyridine] | < 1 nM
FC(F)(F)Oc1cccc(COc2cccc(C3CCN(Cc4nc5cc(-c6nnc(C(F)(F)F)[nH]6)ncc5n4C[C@@H]4CCO4)CC3)n2)n1 [Compound 10, (S)-3-(oxetan-2-ylmethyl)-2-((4-(6-((6-(trifluoromethoxy)pyridin-2-yl)methoxy)pyridin-2-yl)piperidin-1-yl)methyl)-6-(5-(trifluoromethyl)-4H-1,2,4-triazol-3-yl)-3H-imidazo[4,5-c]pyridine] | < 1 nM
FC(F)(F)Oc1cccc(COc2cccc(C3CCN(Cc4nc5cc(-c6nnc(C(F)(F)F)[nH]6)ncc5n4C[C@@H]4CCO4)CC3)n2)c1 [Compound 11, (S)-3-(oxetan-2-ylmethyl)-2-((4-(6-((3-(trifluoromethoxy)benzyl)oxy)pyridin-2-yl)piperidin-1-yl)methyl)-6-(5-(trifluoromethyl)-4H-1,2,4-triazol-3-yl)-3H-imidazo[4,5-c]pyridine] | < 1 nM
Cc1ccc(COc2cccc(C3CCN(Cc4nc5cc(-c6nnc(C(F)(F)F)[nH]6)ncc5n4C[C@@H]4CCO4)CC3)n2)nc1OC(F)F [Compound 12, (S)-2-((4-(6-((6-(difluoromethoxy)-5-methylpyridin-2-yl)methoxy)pyridin-2-yl)piperidin-1-yl)methyl)-3-(oxetan-2-ylmethyl)-6-(5-(trifluoromethyl)-4H-1,2,4-triazol-3-yl)-3H-imidazo[4,5-c]pyridine] | < 1 nM
FC(F)Oc1nc(COc2cccc(C3CCN(Cc4nc5cc(-c6nnc(C(F)(F)F)[nH]6)ncc5n4C[C@@H]4CCO4)CC3)n2)ccc1Cl [Compound 13, (S)-2-((4-(6-((5-chloro-6-(difluoromethoxy)pyridin-2-yl)methoxy)pyridin-2-yl)piperidin-1-yl)methyl)-3-(oxetan-2-ylmethyl)-6-(5-(trifluoromethyl)-4H-1,2,4-triazol-3-yl)-3H-imidazo[4,5-c]pyridine] | < 1 nM
Fc1ccc(COc2cccc(C3CCN(Cc4nc5cc(-c6nnc(C(F)(F)F)[nH]6)ncc5n4C[C@@H]4CCO4)CC3)n2)nc1OC(F)F [Compound 14, (S)-2-((4-(6-((6-(difluoromethoxy)-5-fluoropyridin-2-yl)methoxy)pyridin-2-yl)piperidin-1-yl)methyl)-3-(oxetan-2-ylmethyl)-6-(5-(trifluoromethyl)-4H-1,2,4-triazol-3-yl)-3H-imidazo[4,5-c]pyridine] | < 1 nM
Cc1ccc(COc2cccc(C3CCN(Cc4nc5cc(-c6nnc(C(F)(F)F)[nH]6)ncc5n4C[C@@H]4CCO4)CC3)n2)c(OC(F)F)n1 [Compound 15, (S)-2-((4-(6-((2-(difluoromethoxy)-6-methylpyridin-3-yl)methoxy)pyridin-2-yl)piperidin-1-yl)methyl)-3-(oxetan-2-ylmethyl)-6-(5-(trifluoromethyl)-4H-1,2,4-triazol-3-yl)-3H-imidazo[4,5-c]pyridine] | < 1 nM
FC(F)(F)c1nnc(-c2cc3nc(CN4CCC(c5cccc(OCc6ccc(Cl)c7c6OCO7)n5)CC4)n(C[C@@H]4CCO4)c3cn2)[nH]1 [Compound 16, (S)-2-((4-(6-((7-chlorobenzo[d][1,3]dioxol-4-yl)methoxy)pyridin-2-yl)piperidin-1-yl)methyl)-3-(oxetan-2-ylmethyl)-6-(5-(trifluoromethyl)-4H-1,2,4-triazol-3-yl)-3H-imidazo[4,5-c]pyridine] | < 1 nM

Results, then the molecule that gave them:

EC50 | Structure (SMILES)
< 1 nM | Fc1cc(Cl)ccc1COc1cccc([C@H]2CCN(Cc3nc4cc(-c5nnc(C(F)(F)F)[nH]5)ncc4n3C[C@@H]3CCO3)C[C@@H]2F)n1 (single isomer, unassigned) [Compound 58]
< 1 nM | Fc1cc(Cl)ccc1COc1cccc([C@@H]2CCN(Cc3nc4cc(-c5nnc(C(F)(F)F)[nH]5)ncc4n3C[C@@H]3CCO3)C[C@H]2F)n1 (single isomer, unassigned) [Compound 59]
< 1 nM | C[C@]1(c2ccc(Cl)cn2)Oc2cccc([C@H]3CCN(Cc4nc5cc(-c6nnc(C(F)(F)F)[nH]6)cnc5n4C[C@@H]4CCO4)C[C@@H]3F)c2O1 (single isomer, unassigned) [Compound 60]
< 1 nM | C[C@]1(c2ccc(Cl)cn2)Oc2cccc([C@@H]3CCN(Cc4nc5cc(-c6nnc(C(F)(F)F)[nH]6)cnc5n4C[C@@H]4CCO4)C[C@H]3F)c2O1 (single isomer, unassigned) [Compound 61]
< 1 nM | C[C@]1(c2ccc(Cl)cn2)Oc2cccc([C@H]3CCN(Cc4nc5cc(-c6nnc(C(F)(F)F)[nH]6)ncc5n4C[C@@H]4CCO4)C[C@@H]3F)c2O1 (single isomer, unassigned) [Compound 62]
< 1 nM | C[C@]1(c2ccc(Cl)cn2)Oc2cccc([C@@H]3CCN(Cc4nc5cc(-c6nnc(C(F)(F)F)[nH]6)ncc5n4C[C@@H]4CCO4)C[C@H]3F)c2O1 (single isomer, unassigned) [Compound 63]
< 1 nM | Fc1ccc(COc2cccc(C3CCN(Cc4nc5cc(-c6nnc(C(F)(F)F)[nH]6)ncc5n4C[C@@H]4CCO4)CC3)n2)c(F)c1 [Compound 1, 2-[(2,4-difluorophenyl)methoxy]-6-{1-[(3-{[(2S)-oxetan-2-yl]methyl}-6-[5-(trifluoromethyl)-4H-1,2,4-triazol-3-yl]-3H-imidazo[4,5-c]pyridin-2-yl)methyl]piperidin-4-yl}pyridine]
< 1 nM | COc1cc(Cl)ccc1COc1cccc(C2CCN(Cc3nc4cc(-c5nnc(C(F)(F)F)[nH]5)ncc4n3C[C@@H]3CCO3)CC2)n1 [Compound 2, (S)-2-((4-(6-((4-chloro-2-methoxybenzyl)oxy)pyridin-2-yl)piperidin-1-yl)methyl)-3-(oxetan-2-ylmethyl)-6-(5-(trifluoromethyl)-4H-1,2,4-triazol-3-yl)-3H-imidazo[4,5-c]pyridine]
< 1 nM | COc1c(F)ccc(COc2cccc(C3CCN(Cc4nc5cc(-c6nnc(C(F)(F)F)[nH]6)ncc5n4C[C@@H]4CCO4)CC3)n2)c1F [Compound 3, (S)-2-((4-(6-((2,4-difluoro-3-methoxybenzyl)oxy)pyridin-2-yl)piperidin-1-yl)methyl)-3-(oxetan-2-ylmethyl)-6-(5-(trifluoromethyl)-4H-1,2,4-triazol-3-yl)-3H-imidazo[4,5-c]pyridine]
< 1 nM | Cc1c(Cl)ccc(COc2cccc(C3CCN(Cc4nc5cc(-c6nnc(C(F)(F)F)[nH]6)ncc5n4C[C@@H]4CCO4)CC3)n2)c1F [Compound 4, 2-[(4-chloro-2-fluoro-3-methylphenyl)methoxy]-6-{1-[(3-{[(2S)-oxetan-2-yl]methyl}-6-[5-(trifluoromethyl)-4H-1,2,4-triazol-3-yl]-3H-imidazo[4,5-c]pyridin-2-yl)methyl]piperidin-4-yl}pyridine]
< 1 nM | Cc1c(F)ccc(COc2cccc(C3CCN(Cc4nc5cc(-c6nnc(C(F)(F)F)[nH]6)ncc5n4C[C@@H]4CCO4)CC3)n2)c1F [Compound 5, 2-[(2,4-difluoro-3-methylphenyl)methoxy]-6-{1-[(3-{[(2S)-oxetan-2-yl]methyl}-6-[5-(trifluoromethyl)-4H-1,2,4-triazol-3-yl]-3H-imidazo[4,5-c]pyridin-2-yl)methyl]piperidin-4-yl}pyridine]
